System: MV-4-11 cells
Assay: Gene expression microarray analysis (Affymetrix PrimeView) and GSEA
Assay type: cell-based, human
Parameters: RFU PODN (11730768_x_at) / Fold change /veh PODN (11730768_x_at) / RFU LINC00158 (11744669_a_at) / Fold change /veh LINC00158 (11744669_a_at) / RFU DUSP10 (11751237_a_at) / Fold change /veh DUSP10 (11751237_a_at) / RFU ID3 (11757404_x_at) / Fold change /veh ID3 (11757404_x_at) / RFU PLEKHG5 (11737974_s_at) / Fold change /veh PLEKHG5 (11737974_s_at) / RFU LRRC4B (11730491_at) / Fold change /veh LRRC4B (11730491_at) / RFU GIMAP4 (11747438_a_at) / Fold change /veh GIMAP4 (11747438_a_at) / RFU KRT8 (11758183_x_at) / Fold change /veh KRT8 (11758183_x_at) / RFU CNN1 (11734310_a_at) / Fold change /veh CNN1 (11734310_a_at) / RFU VPS37D (11726825_at) / Fold change /veh VPS37D (11726825_at) / RFU C10orf10 (11716522_x_at) / Fold change /veh C10orf10 (11716522_x_at) / RFU KIR2DL2 /// KIR2DL4 /// KIR2DL5A /// KIR2DL5B /// KIR2DS1 /// KIR2DS2 /// KIR2DS3 /// KIR2DS4 /// KIR3DL3 /// KIR3DL3 /// KIR3DS1 (11738374_at) / Fold change /veh KIR2DL2 /// KIR2DL4 /// KIR2DL5A /// KIR2DL5B /// KIR2DS1 /// KIR2DS2 /// KIR2DS3 /// KIR2DS4 /// KIR3DL3 /// KIR3DL3 /// KIR3DS1 (11738374_at) / RFU C1QL1 (11718748_at) / Fold change /veh C1QL1 (11718748_at) / RFU TMPRSS4 (11747572_a_at) / Fold change /veh TMPRSS4 (11747572_a_at) / RFU HAMP (11756126_x_at) / Fold change /veh HAMP (11756126_x_at) / RFU RNFT2 (11725882_a_at) / Fold change /veh RNFT2 (11725882_a_at) / RFU NR4A2 (11747474_a_at) / Fold change /veh NR4A2 (11747474_a_at) / RFU ABCC12 (11746883_a_at) / Fold change /veh ABCC12 (11746883_a_at) / RFU TMEM136 (11760407_x_at) / Fold change /veh TMEM136 (11760407_x_at) / RFU CLDN22 /// WWC2 (11732394_at) / Fold change /veh CLDN22 /// WWC2 (11732394_at) / RFU HLA-DPB1 (11760878_x_at) / Fold change /veh HLA-DPB1 (11760878_x_at) / RFU SPINT1 (11716480_a_at) / Fold change /veh SPINT1 (11716480_a_at) / RFU GAP43 (11754022_s_at) / Fold change /veh GAP43 (11754022_s_at) / RFU A4GNT (11735810_at) / Fold change /veh A4GNT (11735810_at) / RFU PRB3 (11715151_x_at) / Fold change /veh PRB3 (11715151_x_at) / RFU TUBB4B (11761932_at) / Fold change /veh TUBB4B (11761932_at) / RFU CAPN14 (11732068_a_at) / Fold change /veh CAPN14 (11732068_a_at) / RFU TMCC2 (11721928_a_at) / Fold change /veh TMCC2 (11721928_a_at) / RFU IRGQ (11745062_a_at) / Fold change /veh IRGQ (11745062_a_at) / RFU FAM174B (11720279_a_at) / Fold change /veh FAM174B (11720279_a_at) / RFU TMPRSS4 (11748680_a_at) / Fold change /veh TMPRSS4 (11748680_a_at) / RFU FAM212B (11763350_a_at) / Fold change /veh FAM212B (11763350_a_at) / RFU PLEKHG5 (11743358_a_at) / Fold change /veh PLEKHG5 (11743358_a_at) / RFU ZSCAN30 (11745921_a_at) / Fold change /veh ZSCAN30 (11745921_a_at) / RFU CMKLR1 (11741424_a_at) / Fold change /veh CMKLR1 (11741424_a_at) / RFU LOC101060620 /// MAPK8IP1 (11723275_at) / Fold change /veh LOC101060620 /// MAPK8IP1 (11723275_at) / RFU SPTSSB (11747773_x_at) / Fold change /veh SPTSSB (11747773_x_at) / RFU PRSS12 (11739890_at) / Fold change /veh PRSS12 (11739890_at) / RFU BIN1 (11741810_x_at) / Fold change /veh BIN1 (11741810_x_at) / RFU WNT11 (11732464_a_at) / Fold change /veh WNT11 (11732464_a_at) / RFU C10orf10 (11716521_a_at) / Fold change /veh C10orf10 (11716521_a_at) / RFU C5orf56 (11738089_at) / Fold change /veh C5orf56 (11738089_at) / RFU CYB561 (11721691_x_at) / Fold change /veh CYB561 (11721691_x_at) / RFU ANKRD19P (11752326_a_at) / Fold change /veh ANKRD19P (11752326_a_at) / RFU OR2T12 /// OR2T33 /// OR2T8 (11738714_s_at) / Fold change /veh OR2T12 /// OR2T33 /// OR2T8 (11738714_s_at) / RFU VCAN (11748164_a_at) / Fold change /veh VCAN (11748164_a_at) / RFU JSRP1 (11732532_at) / Fold change /veh JSRP1 (11732532_at) / RFU KRTAP10-11 (11738290_x_at) / Fold change /veh KRTAP10-11 (11738290_x_at) / RFU MYO3A (11730013_a_at) / Fold change /veh MYO3A (11730013_a_at) / RFU EBF3 (11725865_a_at) / Fold change /veh EBF3 (11725865_a_at) / RFU CAMK2N1 (11719241_x_at) / Fold change /veh CAMK2N1 (11719241_x_at) / RFU C5orf56 (11738088_a_at) / Fold change /veh C5orf56 (11738088_a_at) / RFU OLFML3 (11715873_a_at) / Fold change /veh OLFML3 (11715873_a_at) / RFU LOC100653217 /// NTM (11731650_a_at) / Fold change /veh LOC100653217 /// NTM (11731650_a_at) / RFU MAPK11 (11762145_a_at) / Fold change /veh MAPK11 (11762145_a_at) / RFU FIZ1 (11724087_x_at) / Fold change /veh FIZ1 (11724087_x_at) / RFU OASL (11726364_x_at) / Fold change /veh OASL (11726364_x_at) / RFU SOX15 (11748057_x_at) / Fold change /veh SOX15 (11748057_x_at) / RFU CD79A (11719716_a_at) / Fold change /veh CD79A (11719716_a_at) / RFU HIST1H1D (11736915_at) / Fold change /veh HIST1H1D (11736915_at) / RFU CASKIN2 (11723855_a_at) / Fold change /veh CASKIN2 (11723855_a_at) / RFU LOC730098 (11760151_x_at) / Fold change /veh LOC730098 (11760151_x_at) / RFU OR4N2 (11742367_at) / Fold change /veh OR4N2 (11742367_at) / RFU PRRT2 (11749266_a_at) / Fold change /veh PRRT2 (11749266_a_at) / RFU SNX32 (11753110_a_at) / Fold change /veh SNX32 (11753110_a_at) / RFU CDHR5 (11726645_a_at) / Fold change /veh CDHR5 (11726645_a_at) / RFU RCAN1 (11760418_a_at) / Fold change /veh RCAN1 (11760418_a_at) / RFU FAM167A (11723789_a_at) / Fold change /veh FAM167A (11723789_a_at) / RFU FAM26E (11764081_at) / Fold change /veh FAM26E (11764081_at) / RFU ISYNA1 (11749810_s_at) / Fold change /veh ISYNA1 (11749810_s_at) / RFU ACY1 (11761880_at) / Fold change /veh ACY1 (11761880_at) / RFU 11764098_at / Fold change /veh 11764098_at / RFU SAMD14 (11745864_x_at) / Fold change /veh SAMD14 (11745864_x_at) / RFU NPB (11741838_a_at) / Fold change /veh NPB (11741838_a_at) / RFU TMPRSS6 (11731388_a_at) / Fold change /veh TMPRSS6 (11731388_a_at) / RFU KRTAP10-2 (11738614_at) / Fold change /veh KRTAP10-2 (11738614_at) / RFU ARHGAP8 /// PRR5-ARHGAP8 (11727945_x_at) / Fold change /veh ARHGAP8 /// PRR5-ARHGAP8 (11727945_x_at) / RFU KRTAP5-7 /// NADSYN1 (11734609_at) / Fold change /veh KRTAP5-7 /// NADSYN1 (11734609_at) / RFU RASL12 (11751679_a_at) / Fold change /veh RASL12 (11751679_a_at) / RFU CDKN2B (11736163_a_at) / Fold change /veh CDKN2B (11736163_a_at) / RFU PRF1 (11729649_at) / Fold change /veh PRF1 (11729649_at) / RFU, ZNF638 /// ZNF638-IT1 / Fold change vs veh, ZNF638 /// ZNF638-IT1 / RFU, PANK3 / Fold change vs veh, PANK3 / RFU, SH3YL1 / Fold change vs veh, SH3YL1 / RFU, ZEB2 / Fold change vs veh, ZEB2 / RFU, NRIP1 / Fold change vs veh, NRIP1 / RFU, PTTG1IP / Fold change vs veh, PTTG1IP / RFU, CAPN2 / Fold change vs veh, CAPN2 / RFU, MED14 / Fold change vs veh, MED14 / RFU, SNORA58 / Fold change vs veh, SNORA58 / RFU, C1orf63 / Fold change vs veh, C1orf63 / RFU, LRRFIP1 / Fold change vs veh, LRRFIP1 / RFU, NDUFAF7 / Fold change vs veh, NDUFAF7 / RFU, SLC12A2 / Fold change vs veh, SLC12A2 / RFU, IBTK / Fold change vs veh, IBTK / RFU, ESF1 / Fold change vs veh, ESF1 / Fold change vs veh, TMEM50B / RFU, TAOK1 / Fold change vs veh, TAOK1 / RFU, ACBD3 / Fold change vs veh, ACBD3 / RFU, TMA16 / Fold change vs veh, TMA16 / RFU, RWDD3 / Fold change vs veh, RWDD3 / RFU, BCAT1 / Fold change vs veh, BCAT1 / RFU, EDEM3 / Fold change vs veh, EDEM3 / RFU, TMEM33 / Fold change vs veh, TMEM33 / RFU, WDR75 / Fold change vs veh, WDR75 / RFU, AHCTF1 / Fold change vs veh, AHCTF1 / RFU, TFRC / Fold change vs veh, TFRC / RFU, ZDHHC17 / Fold change vs veh, ZDHHC17 / RFU, NOM1 / Fold change vs veh, NOM1 / RFU, ARL8B / Fold change vs veh, ARL8B / RFU, ZBTB11 / Fold change vs veh, ZBTB11 / RFU, TAMM41 / Fold change vs veh, TAMM41 / RFU, KIAA1704 /// LOC100996395 / Fold change vs veh, KIAA1704 /// LOC100996395 / RFU, ING1 / Fold change vs veh, ING1 / RFU, TRMT61B / Fold change vs veh, TRMT61B / RFU, FUBP3 / Fold change vs veh, FUBP3 / RFU, TP53 / Fold change vs veh, TP53 / RFU, TNKS2 / Fold change vs veh, TNKS2 / RFU, ZFP14 / Fold change vs veh, ZFP14 / RFU, ACTR2 / Fold change vs veh, ACTR2 / RFU, PPP3R1 / Fold change vs veh, PPP3R1 / RFU, PIK3R1 / Fold change vs veh, PIK3R1 / RFU, HNRNPA1 / Fold change vs veh, HNRNPA1 / RFU, RNF170 / Fold change vs veh, RNF170 / RFU, ZNF28 / Fold change vs veh, ZNF28 / RFU, RNGTT / Fold change vs veh, RNGTT / RFU, OGT / Fold change vs veh, OGT / RFU, BRD1 / Fold change vs veh, BRD1 / RFU, MARS / Fold change vs veh, MARS / RFU, ZNF655 / Fold change vs veh, ZNF655 / RFU, FAHD1 / Fold change vs veh, FAHD1 / RFU, BDP1 / Fold change vs veh, BDP1 / RFU, LRRCC1 / Fold change vs veh, LRRCC1 / RFU, ARID1A / Fold change vs veh, ARID1A / RFU, ZNF146 / Fold change vs veh, ZNF146 / RFU, ZNF330 / Fold change vs veh, ZNF330 / RFU, GPN3 / Fold change vs veh, GPN3 / RFU, C9orf123 / Fold change vs veh, C9orf123 / RFU, N4BP2L2 / Fold change vs veh, N4BP2L2 / RFU, ARFIP1 / Fold change vs veh, ARFIP1 / RFU, FAM179B / Fold change vs veh, FAM179B / RFU, BCL10 / Fold change vs veh, BCL10 / RFU, UHRF1BP1L / Fold change vs veh, UHRF1BP1L / RFU, BET1 / Fold change vs veh, BET1 / RFU, CNOT2 / Fold change vs veh, CNOT2 / RFU, ZNF268 / Fold change vs veh, ZNF268 / Fold change vs veh, ZNF507 / RFU, DGCR2 / Fold change vs veh, DGCR2 / RFU, WDSUB1 / Fold change vs veh, WDSUB1 / Fold change vs veh, HSP90B1 /// MIR3652 / RFU, ADSS / Fold change vs veh, ADSS / RFU, GK / Fold change vs veh, GK / RFU, ZNF148 / Fold change vs veh, ZNF148 / RFU, TAF9 / Fold change vs veh, TAF9 / RFU, SLC1A5 / Fold change vs veh, SLC1A5 / RFU, SLMO2 / Fold change vs veh, SLMO2 / RFU, ABCC4 / Fold change vs veh, ABCC4 / RFU, LOC101060439 /// RAP1B / Fold change vs veh, LOC101060439 /// RAP1B / RFU, RFX7 / Fold change vs veh, RFX7 / RFU, GTPBP10 / Fold change vs veh, GTPBP10 / RFU, CNEP1R1 / Fold change vs veh, CNEP1R1 / RFU, BIVM-ERCC5 /// ERCC5 / Fold change vs veh, BIVM-ERCC5 /// ERCC5 / RFU, ILF3 / Fold change vs veh, ILF3 / RFU 11762660_at / Fold change /veh 11762660_at / RFU VCAN (11757783_s_at) / Fold change /veh VCAN (11757783_s_at) / RFU DDX43 (11728927_at) / Fold change /veh DDX43 (11728927_at) / RFU KRT8 (11758188_x_at) / Fold change /veh KRT8 (11758188_x_at) / RFU NKD1 (11759106_at) / Fold change /veh NKD1 (11759106_at) / RFU SRD5A1 (11742802_a_at) / Fold change /veh SRD5A1 (11742802_a_at) / RFU TPSAB1 /// TPSB2 (11721975_s_at) / Fold change /veh TPSAB1 /// TPSB2 (11721975_s_at) / RFU GSTM3 (11746129_a_at) / Fold change /veh GSTM3 (11746129_a_at) / RFU IL23R (11737362_x_at) / Fold change /veh IL23R (11737362_x_at) / RFU TMEM51 (11727254_a_at) / Fold change /veh TMEM51 (11727254_a_at) / RFU PIWIL2 (11732686_x_at) / Fold change /veh PIWIL2 (11732686_x_at) / RFU ORM1 (11744905_x_at) / Fold change /veh ORM1 (11744905_x_at) / RFU CCDC152 (11743942_at) / Fold change /veh CCDC152 (11743942_at) / RFU ECM1 (11717891_a_at) / Fold change /veh ECM1 (11717891_a_at) / RFU IL23R (11748794_a_at) / Fold change /veh IL23R (11748794_a_at) / RFU TNFAIP8L3 (11732012_x_at) / Fold change /veh TNFAIP8L3 (11732012_x_at) / RFU MBOAT4 (11741988_at) / Fold change /veh MBOAT4 (11741988_at) / RFU 11764193_at / Fold change /veh 11764193_at / RFU TMEM53 (11763286_at) / Fold change /veh TMEM53 (11763286_at) / RFU MAGEB2 (11727129_at) / Fold change /veh MAGEB2 (11727129_at) / RFU TMEM200A (11744735_a_at) / Fold change /veh TMEM200A (11744735_a_at) / RFU CCDC152 (11751479_a_at) / Fold change /veh CCDC152 (11751479_a_at) / RFU FAM211A (11726209_a_at) / Fold change /veh FAM211A (11726209_a_at) / RFU RGS16 (11746705_a_at) / Fold change /veh RGS16 (11746705_a_at) / RFU VCAN (11755009_s_at) / Fold change /veh VCAN (11755009_s_at) / RFU RHOB (11743442_s_at) / Fold change /veh RHOB (11743442_s_at) / RFU RGS16 (11720943_a_at) / Fold change /veh RGS16 (11720943_a_at) / RFU RGS16 (11720944_at) / Fold change /veh RGS16 (11720944_at) / RFU, VPS4B / Fold change vs veh, VPS4B / RFU, CREB1 / Fold change vs veh, CREB1 / RFU, DNAJC13 / Fold change vs veh, DNAJC13 / RFU, GNAQ / Fold change vs veh, GNAQ / RFU, CDK5R1 / Fold change vs veh, CDK5R1 / RFU, ZRANB3 / Fold change vs veh, ZRANB3 / RFU, CUL4A / Fold change vs veh, CUL4A / RFU, CCNY / Fold change vs veh, CCNY / RFU, UFL1 / Fold change vs veh, UFL1 / RFU, COG3 / Fold change vs veh, COG3 / RFU, DIAPH2 / Fold change vs veh, DIAPH2 / RFU, SKA2 / Fold change vs veh, SKA2 / RFU, AFF3 / Fold change vs veh, AFF3 / RFU, LMF1 / Fold change vs veh, LMF1 / RFU, IPO11 / Fold change vs veh, IPO11 / RFU, DFFB / Fold change vs veh, DFFB / RFU, FOXP1 / Fold change vs veh, FOXP1 / RFU, CARD8 / Fold change vs veh, CARD8 / RFU, STRN3 / Fold change vs veh, STRN3 / RFU, ADK / Fold change vs veh, ADK / RFU, RASSF2 / Fold change vs veh, RASSF2 / RFU, WIPF1 / Fold change vs veh, WIPF1 / RFU, LARP1B / Fold change vs veh, LARP1B / RFU, RASA1 / Fold change vs veh, RASA1 / RFU, RB1 / Fold change vs veh, RB1 / RFU, PPFIA1 / Fold change vs veh, PPFIA1 / RFU, MAT2A / Fold change vs veh, MAT2A / RFU, CCT5 / Fold change vs veh, CCT5 / RFU, WDR92 / Fold change vs veh, WDR92 / RFU, CUX1 / Fold change vs veh, CUX1 / RFU, TTC7A / Fold change vs veh, TTC7A / RFU, TMEM135 / Fold change vs veh, TMEM135 / RFU, DEPTOR / Fold change vs veh, DEPTOR / RFU, CPM / Fold change vs veh, CPM / RFU, DNAJB6 / Fold change vs veh, DNAJB6 / RFU, CACNA2D3 / Fold change vs veh, CACNA2D3 / RFU, DTX4 / Fold change vs veh, DTX4 / RFU, TFCP2 / Fold change vs veh, TFCP2 / RFU, GMCL1 /// GMCL1P1 / Fold change vs veh, GMCL1 /// GMCL1P1 / RFU, AEBP2 / Fold change vs veh, AEBP2 / RFU, SNHG1 /// SNORD22 /// SNORD25 /// SNORD26 /// SNORD27 /// SNORD28 /// SNORD29 /// SNORD31 / Fold change vs veh, SNHG1 /// SNORD22 /// SNORD25 /// SNORD26 /// SNORD27 /// SNORD28 /// SNORD29 /// SNORD31 / Fold change (Aza/veh), C12orf56 (ProbeSet 11735607_a_at) / Fold change (ACY-1035/veh), C12orf56 (ProbeSet 11735607_a_at) / Fold change (Aza/veh), FGFR1OP (ProbeSet 11751329_s_at) / Fold change (ACY-1035/veh), FGFR1OP (ProbeSet 11751329_s_at) / Fold change (Aza/veh), VPS36 (ProbeSet 11739960_a_at) / Fold change (ACY-1035/veh), VPS36 (ProbeSet 11739960_a_at) / RFU SYPL1 (11715823_x_at) / Fold change /veh SYPL1 (11715823_x_at) / RFU IGFBP7 (11715501_s_at) / Fold change /veh IGFBP7 (11715501_s_at) / RFU REEP3 (11722064_at) / Fold change /veh REEP3 (11722064_at) / RFU IGLL1 (11728026_x_at) / Fold change /veh IGLL1 (11728026_x_at): dose or concentration left out as unconfirmed
Conditions: MV-4-11 cells, 48 hours

Nc1ncn([C@@H]2O[C@H](CO)[C@@H](O)[C@H]2O)c(=O)n1 [azacitidine]
RFU TMPRSS4 (11748680_a_at): 47.70 RFU
